Values of other authors as cited in patent publication US8911781B2, “Process of manufacture of novel drug delivery system: multilayer tablet composition of thiazolidinedione and biguanides” (Inventia Healthcare Private Limited, priority 2002, dated 2014).
Where a name gives a salt, the structure may show the parent alone.

Experiments:
[1] = after ingestion
[2] = at steady state concentrations; parent drug

Compound | time to complete gastro-intestinal absorption [1] [h] | plasma elimination half-life (t½) [2] [h]
CN(C)C(=N)N=C(N)N [Metformin HCl] | ≤ 6 | –
CCc1ccc(CCOc2ccc(CC3SC(=O)NC3=O)cc2)nc1 (centres unmarked) [Pioglitazone HCl] | – | 3.3 to 4.9
